Patent US10362781B2, “Methods of controlling the breeding behavior of butterflies” (University of the West Indies, a Regional Institution, …, priority 2010, dated 2019)

Key:
Assay type in all cases: in vivo, Heraclides andraemon
H. andraemon [1] = assay: H. andraemon egg laying on lime plant seedling and P. aduncum, choice of four plants (Example 9); settings: P. aduncum cuttings sprayed twice daily with 0.15% d-limonene aerosol; choice of 4 plants
Excerpt: Butterflies were induced to lay on host plant Piper aduncum plant sprayed with lime plant oil, or lime plant sprayed with Piper aduncum plant oil. Piper aduncum shoots were collected in Andrew, Jamaica, and 297.35 g of leaves were placed in a Clevenger-type extractor and extracted with boiling water. Once extracted according to the methods described in Example 2, 0.8919 g of a clear oil with a minty-like odor was obtained, a yield of 0.30% by weight.
Four Heraclides andraemon pupae were placed in the cage previously described in Example 1. Three pupae hatched into adults, two males and a female, which were allowed to mate and lay eggs. They were given a choice of four types of plants on which to lay: unsprayed Piper aduncum cuttings; Piper aduncum cuttings sprayed with d-limonene; unsprayed lime seedlings; and lime seedlings sprayed with the Piper aduncum emulsion. These plants, all with young leaves, were placed around the cage.
Cuttings from the Piper aduncum shoots with young leaves were used to attempt to induce butterflies to feed and lay eggs on a Piper aduncum plant treated with lime plant extract. The Piper aduncum cuttings were sprayed twice daily for eight days, once in the morning and once in the afternoon, with a d-limonene aerosol formulation. The d-limonene aerosol formulation was prepared as a hydrocarbon mixture of 72% propane and 28% butane, with 0.15% d-limonene. […]

H. andraemon [2] = assay: Egg laying of lime (citrus) plant bred H. andraemon given a choice of plants on which to lay (Example 7); settings: eggs laid on Piper amalago var. amalago plants sprayed with the substance, lime plant-reared butterflies, choice of 4 plants
Procedure: The aerosol mixture for application to citrus plant and Piper amalago var. amalago plant materials was prepared by combining lime plant oil, Piper amalago var. amalago plant oil, d-limonene, or a combination thereof, with an alkane hydrocarbon mixture consisting of 28% butane and 72% propane. The aerosol was filled to a concentration of, e.g., 0.25% by weight of Piper amalago var. amalago plant oil in the hydrocarbon mixture or, e.g., 0.45% by weight of lime plant oil in the hydrocarbon mixture.
H. andraemon larvae were reared on lime plant. When they pupated and were ready to lay eggs, they were given the choice of plants on which to lay eggs: unsprayed lime plants, unsprayed Piper amalago var. amalago plants, Piper amalago var. amalago plants sprayed with lime plant oil, and Piper amalago var. amalago plants sprayed with d-limonene. Egg laying was permitted to continue until the butterflies ceased laying eggs. Nearly 100% of the eggs laid hatched into larvae.
Table 5 summarizes the results of an experiment in which the faithfulness of egg laying on the species of plant on which the butterflies were reared was confirmed. In this experiment, both lime plant oil and d-limonene were sprayed onto Piper amalago var. amalago plant to determine whether the butterflies discriminated between the two.

H. andraemon [3] = assay: Egg laying of Piper amalago var. amalago plant bred H. andraemon given a choice of plants on which to lay (Example 8); settings: eggs laid on citrus plant sprayed with the substance, Piper amalago var. amalago-reared butterflies, choice of 4 plants
Excerpt: H. andraemon larvae were reared on Piper amalago var. amalago plant. When they pupated and were ready to lay eggs, the butterflies were given the choice of plants on which to lay eggs: unsprayed lime plants, unsprayed Piper amalago var. amalago plants, citrus plant sprayed with Piper amalago var. amalago plant oil, and citrus plant sprayed with d-limonene. The egg laying was permitted to continue until the butterflies ceased laying eggs.

C=C(C)[C@H]1CC=C(C)CC1 [d-limonene]
% of eggs laid (H. andraemon [1]): 0% | No. of Eggs after 5 Days (H. andraemon [1]): 0 | % of eggs laid (H. andraemon [2]): 25.00% | No. of eggs laid (H. andraemon [2]; total 208 eggs): 52 | % of eggs laid (H. andraemon [3]): 13.47% | No. of eggs laid (H. andraemon [3]; total 193 eggs): 26
